What all share (experiment): NCI tumour cell line growth inhibition, 48 h
Test [1] concerns KM12 colon.
The subject of test [2] is NCI-H23 lung.
For test [3], the system named is SK-MEL-5 melanoma.
The subject of test [4] is 786-0 renal.
In test [5] the test system is ACHN renal.
Test [6] deals with NCI-H226 lung.
Test [7] relates to SNB-75 CNS.
Test [8] concerns SF-268 CNS.
The subject of test [9] is MOLT-4 leukemia.
Test [10] has as its system A549 NSCLC.
In test [11] the test system is A498 renal.
Test [12] concerns OVCAR-4 ovarian.
The subject of test [13] is HCT-15 colon.
Test [14] concerns HCT-116 colon.
Test [15] concerns SK-MEL-2 melanoma.
The test system of test [16] is UO-31 renal.
The subject of test [17] is HCC-2998 colon.

The record followed here is PubChem BioAssay (NCI).

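Tested at 5 concentrations; 48 h exposure; 96-well plates; endpoints linearly interpolated, else capped at highest concentration. TGI: total growth inhibition.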

For `CCC(=O)Nc1ccc(N=Cc2cccc(Oc3ccccc3)c2)cc1`, the TGI in test [1], in [2], in test [3], in test [4], in [5] and in [6] was > 100 µM each time. The TGI is > 100 µM in [7]; > 100 µM in test [8]; 76.8 µM in [9]; > 100 µM in test [10]; > 100 µM in [11]; > 100 µM in [12]. For the same compound, the TGI in test [13], in [14], in test [15] and in test [16] was > 100 µM in each case.
`OCC(CN1CCCCC1)(CN1CCCCC1)CN1CCCCC1`: the TGI in test [1], in [2], in test [3], in [4], in test [5] and in test [6] was > 100 µM in each case. Moreover, the TGI in test [8], in test [9], in test [10], in test [11], in [12] and in [13] was > 100 µM throughout. Moreover, the TGI in [14], in [17] and in test [16] was > 100 µM each time.
For the compound `C#CCOC(=O)c1ccccc1O`, the TGI in test [1], in test [2], in test [3], in test [4], in test [5] and in test [6] was > 100 µM throughout. The TGI in [7], in test [8], in test [9], in test [11], in test [12] and in [13] was > 100 µM in each case. In addition, the TGI in test [14], in test [15] and in [16] was > 100 µM in each case.
`COc1cc2c(cc1OCCCOc1cc(-c3ccc(F)cc3)nc(C)n1)N=C[C@@H]1CCCN1C2=O`: the TGI is 36.2 µM in [1]; 29.4 µM in [2]; 40.9 µM in [3]; 31.5 µM in [4]; 30.4 µM in test [5]; 30.5 µM in test [6]. The TGI was 49.1 µM in test [7]; 36.4 µM in test [8]; 61.1 µM in test [9]; 43 µM in test [10]; 26.4 µM in test [11]; > 100 µM in test [12]. For the same compound, the TGI is 25.8 µM in test [13], 30.6 µM in test [14], 35.2 µM in [15] and 38.7 µM in test [16].
On to `C/C(=N\NS(=O)(=O)c1ccc(C)cc1)C(CN1CCOCC1)C(c1ccccc1)c1c(O)c2ccccc2oc1=O` (stereo not given), for which the TGI in [1], in test [2], in test [3], in test [4], in test [5] and in test [6] was > 100 µM in each case. The TGI in [7], in [8], in test [10], in [11], in [12] and in test [13] was > 100 µM in each case. Further, the TGI in test [14], in test [15] and in test [16] was > 100 µM throughout.
Take `Cn1c2ccccc2c2c(-c3ccccc3)[n+]3ccccc3nc21`: the TGI in [1] is 32.7 µM; in test [2], 54.1 µM; in [3], 33.8 µM; in test [4] it was 65.4 µM; in test [5] it was > 100 µM; in [7], > 100 µM. In addition, the TGI is 38.8 µM in [8]; > 100 µM in test [9]; > 100 µM in test [10]; > 100 µM in test [11]; > 100 µM in test [12]; > 100 µM in test [13]. Moreover, the figures for the TGI in [15] and in test [16] were 40.4 µM and > 100 µM, respectively.
As to `OC12c3ccccc3C1(N1CCOCC1)CCCCC21OCCCO1` (stereo not given), the TGI in test [1], in test [2], in [3], in test [4], in [5] and in test [6] was > 100 µM each time. In addition, the TGI in test [7], in test [8], in test [9], in test [10], in [11] and in test [12] was > 100 µM each time. Besides, the TGI in test [13], in test [14] and in [15] was > 100 µM in each case.
Take `COc1ccc2cc(C(C)C(O)c3cc(F)c(F)c(F)c3F)ccc2c1` (stereo not given): the TGI was > 100 µM in test [2]; > 100 µM in test [3]; > 100 µM in test [4]; > 100 µM in test [5]; > 100 µM in [6]; 43.6 µM in test [7]. Moreover, the TGI in test [8], in test [10], in test [11], in test [12], in test [13] and in [14] was > 100 µM each time. The TGI in [17] and in [16] was > 100 µM in each case.
`COC(=O)CCCN(C)c1n[nH]c(N)n1`: the TGI in test [1], in test [2], in [3], in test [4], in [5] and in test [6] was > 100 µM throughout. In addition, the TGI in test [7], in test [8], in [9], in test [10], in test [12] and in test [13] was > 100 µM throughout. For the same compound, the TGI in test [14], in [17] and in test [16] was > 100 µM each time.
